Measured values from patent US20120156670A1, “IN VITRO […]-CULTURE MODELS” (ARIZONA STATE UNIVERSITY, priority 2010, published 2012).

Experiments:
vaginal epithelial cells = details: background statement; cited from earlier work
[1] = test system: PTE antigen-presenting cells; test: Total immune cell recovery by trypan blue exclusion and flow cytometry (FIG. 2); assay type: cell-based, human; details: FIG. 2 legend; model not specified
Protocol: FIG. 2. Total immune cell recovery calculated by trypan blue exclusion and total DCs per treatment were calculated by applying the percentage marker expression from flow cytometry data. […] CD86 and CCR7 expression in the vaginal model also confirm the antigen uptake/presentation responsiveness of the vaginal model.
The quality of immune APCs was determined by quantifying dendritic cell marker expression (HLA-DR, CD14, CD86, CCR7) from the reverse-transmigrated cell fraction of the MIMIC® co-cultures.

[2] = test system: endocervical model co-culture; test: Bioplex cytokine production in co-culture supernatants, endocervical model; assay type: cell-based, human; details: FIG. 4
Protocol: Vaginal- and endocervix-cell bearing microcarriers were collected, washed, and re-suspended in 30 mL of KSFM complete medium (Invitrogen, with EGF and BPE), CaCl, and Primocin (InvivoGen). They were then placed on a shaker in polystyrene bottles with vented caps in an incubator (5% CO2, 37° C.) to mimic the circular agitation of the RWV bioreactor. The two types of cell-bearing microcarriers were primed using E. coli as the antigen to mimic an in vivo infection of the female reproductive mucosa through the following steps after a day of culture in the incubator. The E. coli was heat-inactivated and the resulting bioparticles were added at a concentration of 1×10^6/mL to the shaker bottles. E. coli bioparticles alone and no-treatment conditions served as positive and baseline controls, respectively.
The effect of the microbicide nonoxynol-9 (N-9) on antigen priming was studied in experiments by mimicking in vivo microbicidal exposure through the use of Conceptrol®, leading to tissue damage, followed by bacterial infection. Over-the-counter, N-9-containing Conceptrol® was diluted to 20 μg/mL. The concentration of Conceptrol® was chosen to limit massive cell death due to presence of N-9 and reported findings of weakened membrane integrity in the presence of this surfactant microbicide (Dayal, 2003). […]

[3] = test system: dendritic cells in endocervical model co-culture; test: MIMIC co-culture of primed endocervical epithelial microcarriers with PTE module: dendritic cell recovery; assay type: cell-based, human; details: FIG. 2
Excerpt: (§1) Our experimental design of the MIMIC® co-culture of RWV bioreactor-grown epithelial tissue from selected female reproductive tract tested the efficacy of the differentiated epithelia to pick up and present antigen (FIG. 1). RWV-cultured female reproductive microcarriers of differentiated vaginal and endocervical mucosa were exposed to microbicide/spermicide and bacterial antigen and then introduced to the APC-containing PTE module to study the innate immune responses to Nonoxynol-9 and E. coli bioparticulate treatments.
(§2) Approximately 3.5-week cultured vaginal tissue aggregates and endocervical tissue aggregates were used to mimic the local mucosal tissue of the female reproductive vaginal and endocervical regions. Cell-bearing microcarrier beads were prepared as follows. Collagen-coated Cytodex beads (Sigma) composed of dextran and having an average size of ˜60-87 microns were prepared for cell attachment by soaking in sterile PBS overnight and autoclaved. […]
(§3) Specifically, for the differentiated reproductive epithelial microcarrier co-cultures used here, we generated PTE modules over a period of 2 weeks as follows (see FIG. 1). […] Cell layer integrity and viability were assessed by phase contrast microscopy and/or trypan blue exclusion staining. […]

[4] = test system: dendritic cells in vaginal model co-culture; test: MIMIC co-culture of primed vaginal epithelial microcarriers with PTE module: dendritic cell recovery; assay type: cell-based, human; details: FIG. 2
Excerpt: as §1, §2, §3

[5] = N-9 and E. coli bioparticles delivered together
[6] = single treatment, N-9 20 μg/mL, E. coli bioparticles 1×10^6/mL, overnight co-culture

Question: With nonoxynol-9 [N-9] as the substance, how does the “effect on vaginal epithelial cells in vitro” value (vaginal epithelial cells) read?
Answer: increased inflammation, cell death, and damaged tissue mucosa

Question: What about the “total DC viability” value [1] of the same substance?
Answer: reduced

Question: What about the “cytokine levels versus no treatment microcarrier plus PTE control” value [2] of the same substance?
Answer: above the no treatment microcarrier plus PTE control

Question: What about the “live dendritic cell recovery” value [3, 5] of the same substance?
Answer: overall reduction in live dendritic cell recovery

Question: What about the “live dendritic cell recovery” value [3, 6] of the same substance?
Answer: overall reduction in live dendritic cell recovery

Question: What about the “live dendritic cell recovery” value [4, 5] of the same substance?
Answer: overall reduction in live dendritic cell recovery

Question: And the “live dendritic cell recovery” value [4, 6]?
Answer: overall reduction in live dendritic cell recovery
